Measured values: US10118935B2, “Melampomagnolide B dimers” (priority 2014, dated 2018)

Columns and labels:
[1] = test system: SF-268; test: NCI 60 cell line five dose, CNS Cancer
[2] = test system: A549/ATCC; test: NCI 60 cell line five dose, Non-Small Cell Lung Cancer
[3] = test system: SK-MEL-5; test: NCI 60 cell line five dose, Melanoma
[4] = test system: OVCAR-3; test: NCI 60 cell line five dose, Ovarian Cancer
[5] = test system: CAKI-1; test: NCI 60 cell line five dose, Renal Cancer
[6] = test system: HCT-15; test: NCI 60 cell line five dose, Colon Cancer
[7] = test system: UACC-62; test: NCI 60 cell line five dose, Melanoma
[8] = test system: SR; test: NCI 60 cell line five dose, Leukemia
[9] = test system: OVCAR-8; test: NCI 60 cell line five dose, Ovarian Cancer
[10] = test system: UO-31; test: NCI 60 cell line five dose, Renal Cancer
[11] = test system: MALME-3M; test: NCI 60 cell line five dose, Melanoma; settings: MAL1ME−3M
[12] = test system: MDA-MB-468; test: NCI 60 cell line five dose, Breast Cancer
[13] = test system: HCT-116; test: NCI 60 cell line five dose, Colon Cancer
[14] = test system: MDA-MB-435; test: NCI 60 cell line five dose, Melanoma
[15] = test system: COLO 205; test: NCI 60 cell line five dose, Colon Cancer
[16] = test system: UACC-257; test: NCI 60 cell line five dose, Melanoma
[17] = test system: K-562; test: NCI 60 cell line five dose, Leukemia
[18] = test system: SF-539; test: NCI 60 cell line five dose, CNS Cancer
[19] = test system: NCI-H460; test: NCI 60 cell line five dose, Non-Small Cell Lung Cancer
[20] = test system: NCI-H226; test: as above
[21] = test system: KM12; test: NCI 60 cell line five dose, Colon Cancer
[22] = test system: PC-3; test: NCI 60 cell line five dose, Prostate Cancer

C=C1C(=O)O[C@H]2[C@H]1CC/C(COC(=O)NCCCCCCCCNC(=O)OC/C1=C/CC[C@@]3(C)O[C@H]3[C@H]3OC(=O)C(=C)[C@@H]3CC1)=C\CC[C@@]1(C)O[C@@H]21 [JVM 3-62, bis(((1aR,7aS, 10aS, 10bS, E)-1a-Methyl-8-methylene-9-oxo-1a,2,3,6,7,7a,8,9,10a,10b-decahydrooxireno[2′,3′:9,10]cyclodeca[1,2-b]furan-5-yl)methyl)octane-1,8-diyldicarbamate]
Percent Growth ([1]; Log10 Concentration −4.0): −59%
Percent Growth ([1]; Log10 Concentration −5.0): −66%
Percent Growth ([1]; Log10 Concentration −6.0): 50%
Percent Growth ([1]; Log10 Concentration −7.0): 104%
Percent Growth ([1]; Log10 Concentration −8.0): 101%
GI50 ([1]; molar): 0.999 µM
TGI ([1]; molar): 2.69E−6
CC50 ([1]; read-out: LC50, molar): 7.24 µM
Percent Growth ([2]; Log10 Concentration −4.0): −84%
Percent Growth ([2]; Log10 Concentration −5.0): −72%
Percent Growth ([2]; Log10 Concentration −6.0): 87%
Percent Growth ([2]; Log10 Concentration −7.0): 96%
Percent Growth ([2]; Log10 Concentration −8.0): 96%
GI50 ([2]; molar): 1.7 µM
TGI ([2]; molar): 3.51E−6
CC50 ([2]; read-out: LC50, molar): 7.26 µM
Percent Growth ([3]; Log10 Concentration −4.0): −87%
Percent Growth ([3]; Log10 Concentration −5.0): −89%
Percent Growth ([3]; Log10 Concentration −6.0): 63%
Percent Growth ([3]; Log10 Concentration −7.0): 95%
Percent Growth ([3]; Log10 Concentration −8.0): 99%
GI50 ([3]; molar): 1.21 µM
TGI ([3]; molar): 2.59E−6
CC50 ([3]; read-out: LC50, SK-MEL-6, molar): 5.53 µM
Percent Growth ([4]; Log10 Concentration −4.0): −100%
Percent Growth ([4]; Log10 Concentration −5.0): −98%
Percent Growth ([4]; Log10 Concentration −6.0): 3%
Percent Growth ([4]; Log10 Concentration −7.0): 101%
Percent Growth ([4]; Log10 Concentration −8.0): 102%
GI50 ([4]; molar): 0.33 µM
TGI ([4]; molar): 1.08E−6
CC50 ([4]; read-out: LC50, molar): 3.32 µM
Percent Growth ([5]; Log10 Concentration −4.0): −99%
Percent Growth ([5]; Log10 Concentration −5.0): −93%
Percent Growth ([5]; Log10 Concentration −6.0): 41%
Percent Growth ([5]; Log10 Concentration −7.0): 92%
Percent Growth ([5]; Log10 Concentration −8.0): 94%
GI50 ([5]; molar): 0.557 µM
CC50 ([5]; read-out: LC50, molar): 4.79 µM
Percent Growth ([6]; Log10 Concentration −4.0): 83%
Percent Growth ([6]; Log10 Concentration −5.0): −90%
Percent Growth ([6]; Log10 Concentration −6.0): 16%
Percent Growth ([6]; Log10 Concentration −7.0): 90%
Percent Growth ([6]; Log10 Concentration −8.0): 91%
GI50 ([6]; molar): 0.346 µM
TGI ([6]; molar): 1.41E−6
CC50 ([6]; read-out: LC50, molar): 4.16 µM
Percent Growth ([7]; Log10 Concentration −4.0): −77%
Percent Growth ([7]; Log10 Concentration −5.0): −84%
Percent Growth ([7]; Log10 Concentration −6.0): −39%
Percent Growth ([7]; Log10 Concentration −7.0): 87%
Percent Growth ([7]; Log10 Concentration −8.0): 96%
GI50 ([7]; molar): 0.197 µM
TGI ([7]; molar): 4.88E−7
CC50 ([7]; read-out: LC50, molar): 1.72 µM
Percent Growth ([8]; Log10 Concentration −4.0): −31%
Percent Growth ([8]; Log10 Concentration −5.0): −26%
Percent Growth ([8]; Log10 Concentration −6.0): 6%
Percent Growth ([8]; Log10 Concentration −7.0): 95%
Percent Growth ([8]; Log10 Concentration −8.0): 98%
GI50 ([8]; molar): 0.317 µM
CC50 ([8]; read-out: LC50, molar): > 100 µM
Percent Growth ([9]; Log10 Concentration −4.0): −55%
Percent Growth ([9]; Log10 Concentration −5.0): −51%
Percent Growth ([9]; Log10 Concentration −6.0): 6%
Percent Growth ([9]; Log10 Concentration −7.0): 96%
Percent Growth ([9]; Log10 Concentration −8.0): 100%
GI50 ([9]; molar): 0.326 µM
CC50 ([9]; read-out: LC50, molar): 6.77 µM
Percent Growth ([10]; Log10 Concentration −4.0): −87%
Percent Growth ([10]; Log10 Concentration −5.0): −94%
Percent Growth ([10]; Log10 Concentration −6.0): 48%
Percent Growth ([10]; Log10 Concentration −7.0): 90%
Percent Growth ([10]; Log10 Concentration −8.0): 90%
GI50 ([10]; molar): 0.88 µM
TGI ([10]; molar): 2.17E−6
CC50 ([10]; read-out: LC50, molar): 4.9 µM
Percent Growth ([11]; Log10 Concentration −4.0): −65%
Percent Growth ([11]; Log10 Concentration −5.0): −58%
Percent Growth ([11]; Log10 Concentration −6.0): −55%
Percent Growth ([11]; Log10 Concentration −7.0): 95%
Percent Growth ([11]; Log10 Concentration −8.0): 95%
GI50 ([11]; molar): 0.199 µM
CC50 ([11]; read-out: LC50, molar): 0.929 µM
Percent Growth ([12]; Log10 Concentration −4.0): −70%
Percent Growth ([12]; Log10 Concentration −5.0): −81%
Percent Growth ([12]; Log10 Concentration −6.0): −43%
Percent Growth ([12]; Log10 Concentration −7.0): 86%
Percent Growth ([12]; Log10 Concentration −8.0): 100%
GI50 ([12]; molar): 0.19 µM
TGI ([12]; molar): 4.62E−7
CC50 ([12]; read-out: LC50, molar): 1.5 µM
Percent Growth ([13]; Log10 Concentration −4.0): −86%
Percent Growth ([13]; Log10 Concentration −5.0): −92%
Percent Growth ([13]; Log10 Concentration −6.0): −62%
Percent Growth ([13]; Log10 Concentration −7.0): 97%
Percent Growth ([13]; Log10 Concentration −8.0): 98%
GI50 ([13]; molar): 0.195 µM
TGI ([13]; molar): 4.07E−7
CC50 ([13]; read-out: LC50, molar): 0.837 µM
Percent Growth ([14]; Log10 Concentration −4.0): −86%
Percent Growth ([14]; Log10 Concentration −5.0): −74%
Percent Growth ([14]; Log10 Concentration −6.0): −18%
Percent Growth ([14]; Log10 Concentration −7.0): 92%
Percent Growth ([14]; Log10 Concentration −8.0): 91%
GI50 ([14]; molar): 0.241 µM
TGI ([14]; molar): 6.86E−7
CC50 ([14]; read-out: LC50, molar): 3.74 µM
Percent Growth ([15]; Log10 Concentration −4.0): −65%
Percent Growth ([15]; Log10 Concentration −5.0): −73%
Percent Growth ([15]; Log10 Concentration −6.0): −15%
Percent Growth ([15]; Log10 Concentration −7.0): 109%
Percent Growth ([15]; Log10 Concentration −8.0): 104%
GI50 ([15]; molar): 0.3 µM
TGI ([15]; molar): 7.56E−7
CC50 ([15]; read-out: LC50, molar): 3.99 µM
Percent Growth ([16]; Log10 Concentration −4.0): −55%
Percent Growth ([16]; Log10 Concentration −5.0): −57%
Percent Growth ([16]; Log10 Concentration −6.0): 47%
Percent Growth ([16]; Log10 Concentration −7.0): 89%
Percent Growth ([16]; Log10 Concentration −8.0): 97%
GI50 ([16]; molar): 0.848 µM
TGI ([16]; molar): 2.82E−6
CC50 ([16]; read-out: LC50, molar): 8.51 µM
Percent Growth ([17]; Log10 Concentration −4.0): −44%
Percent Growth ([17]; Log10 Concentration −5.0): −14%
Percent Growth ([17]; Log10 Concentration −6.0): 2%
Percent Growth ([17]; Log10 Concentration −7.0): 107%
Percent Growth ([17]; Log10 Concentration −8.0): 103%
GI50 ([17]; molar): 0.349 µM
TGI ([17]; molar): 1.37E−6
CC50 ([17]; read-out: LC50, molar): > 100 µM
Percent Growth ([18]; Log10 Concentration −4.0): −83%
Percent Growth ([18]; Log10 Concentration −5.0): −91%
Percent Growth ([18]; Log10 Concentration −6.0): −27%
Percent Growth ([18]; Log10 Concentration −7.0): 95%
Percent Growth ([18]; Log10 Concentration −8.0): 89%
GI50 ([18]; molar): 0.235 µM
TGI ([18]; molar): 5.99E−7
CC50 ([18]; read-out: LC50, molar): 2.26 µM
Percent Growth ([19]; Log10 Concentration −4.0): −64%
Percent Growth ([19]; Log10 Concentration −5.0): −56%
Percent Growth ([19]; Log10 Concentration −6.0): 84%
Percent Growth ([19]; Log10 Concentration −7.0): 102%
Percent Growth ([19]; Log10 Concentration −8.0): 104%
GI50 ([19]; molar): 1.75 µM
TGI ([19]; molar): 3.98E−6
CC50 ([19]; read-out: LC50, molar): 9.02 µM
Percent Growth ([20]; Log10 Concentration −4.0): −57%
Percent Growth ([20]; Log10 Concentration −5.0): −46%
Percent Growth ([20]; Log10 Concentration −6.0): 83%
Percent Growth ([20]; Log10 Concentration −7.0): 89%
Percent Growth ([20]; Log10 Concentration −8.0): 93%
GI50 ([20]; molar): 1.81 µM
TGI ([20]; molar): 4.39E−6
Percent Growth ([21]; Log10 Concentration −4.0): −83%
Percent Growth ([21]; Log10 Concentration −5.0): −66%
Percent Growth ([21]; Log10 Concentration −6.0): 65%
Percent Growth ([21]; Log10 Concentration −7.0): 105%
Percent Growth ([21]; Log10 Concentration −8.0): 102%
GI50 ([21]; molar): 1.29 µM
CC50 ([21]; read-out: LC50, molar): 7.49 µM
Percent Growth ([22]; Log10 Concentration −4.0): −91%
Percent Growth ([22]; Log10 Concentration −5.0): −78%
Percent Growth ([22]; Log10 Concentration −6.0): 21%
Percent Growth ([22]; Log10 Concentration −7.0): 91%
Percent Growth ([22]; Log10 Concentration −8.0): 91%
GI50 ([22]; molar): 0.385 µM
TGI ([22]; molar): 1.63E−6
CC50 ([22]; read-out: LC50, molar): 5.2 µM
